Test results published in article PMC5008373, “Pantoprazole, an FDA-approved proton-pump inhibitor, suppresses colorectal cancer growth by targeting T-cell-originated protein kinase” (Oncotarget, 2016).
Each block holds one molecule with its values, some of them ahead of it.

Columns and labels:
Assay type in all cases: binding
[1] = biological target: T1, T-cell-originated protein kinase (TOPK) (Homo sapiens, UniProt Q96KB5); assay: biochemical
T1 construct: gene PBK
T1 sequence (Q96KB5 1-322): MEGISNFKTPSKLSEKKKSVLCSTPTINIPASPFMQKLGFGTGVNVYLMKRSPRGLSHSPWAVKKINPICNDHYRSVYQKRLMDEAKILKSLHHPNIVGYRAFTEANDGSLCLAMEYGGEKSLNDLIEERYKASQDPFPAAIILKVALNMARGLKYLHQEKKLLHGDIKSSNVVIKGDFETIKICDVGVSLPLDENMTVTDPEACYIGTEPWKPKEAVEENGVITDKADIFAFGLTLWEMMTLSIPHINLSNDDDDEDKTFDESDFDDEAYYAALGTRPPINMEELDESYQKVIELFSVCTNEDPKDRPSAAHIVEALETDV

[2] = biological target: T1, T-cell-originated protein kinase (TOPK); assay: microscale thermophoresis with labeled recombinant TOPK (reference inhibitor); settings: read-out: Dissociation constant with TOPK / Kd^b
[3] = biological target: T1, T-cell-originated protein kinase (TOPK); assay: microscale thermophoresis with labeled recombinant TOPK; also in vitro kinase assay (histone H3 phosphorylation); settings: read-out: Dissociation constant with TOPK / Kd^b
[4] = read-out: Dissociation constant with TOPK / Kd^b

Kd [1, 4]: 226 ± 29.5 µM
Compound: CC(=O)Nc1ccc(OCC(O)CNC(C)C)cc1 (centres unmarked) [Practolol]

Kd [3]: 24.2 ± 2.3 µM
Compound: COc1ccnc(C[S+]([O-])c2nc3ccc(OC(F)F)cc3[nH]2)c1OC (centres unmarked) [Pantoprazole]

Further lines, the molecule ahead of its results:

Compound: O=C(O)c1cc(/N=N/c2ccc(S(=O)(=O)Nc3ccccn3)cc2)ccc1O [Sulfasalazine]
Kd [1]: 339 ± 7.7 µM

Compound: N#Cc1c2nc3ccccc3nc2n2ccc(NC(=O)c3cccs3)cc12 [HI-TOPK-032]
Kd [2]: 327 ± 62.7 µM

Compound: NC(CO)C(=O)NNCc1ccc(O)c(O)c1O (centres unmarked) [Benserazide]
Kd [1, 4]: 477 ± 19.9 µM
